ChEMBL document CHEMBL5528031, “Synthesis and antitumor activity of cyclopentane-fused anthraquinone derivatives” (Eur J Med Chem, 2024)
In brackets after ≈: the same amount, converted by molar mass. Activity calls are given as the source filed them. The calls are words filed in the database; no cut-off is given here.

Legend:
[1] = Solubility of compound in deionized water at pH 6; type: physicochemical
[2] = Antiproliferative activity against multidrug resistant human K562/4 cells expressing P-gp assessed as inhibition of cell growth incubated for 72 hrs by MTT assay; type: functional, cell-based; details: K562/4, 72 h
[3] = tested on: HL-60; experiment: Antiproliferative activity against human HL-60 cells assessed as inhibition of cell growth incubated for 72 hrs by MTT assay; type: functional, cell-based; details: HL-60, 72 h
[4] = tested on: K562; experiment: Antiproliferative activity against human K562 cells assessed as inhibition of cell growth incubated for 72 hrs by MTT assay; type: functional, cell-based; details: K562, 72 h
[5] = tested on: HCT-116; experiment: Antiproliferative activity against human HCT-116 cells assessed as inhibition of cell growth incubated for 72 hrs by MTT assay; type: functional, cell-based; details: HCT-116, 72 h
[6] = tested on: CAPAN-1; experiment: Antiproliferative activity against human CAPAN-1 cells assessed as inhibition of cell growth incubated for 72 hrs by MTT assay; type: functional, cell-based; details: CAPAN-1, 72 h
[7] = tested on: NCI-H1975; experiment: Antiproliferative activity against human NCI-H1975 cells assessed as inhibition of cell growth incubated for 72 hrs by MTT assay; type: functional, cell-based; details: NCI-H1975, 72 h
[8] = Antiproliferative activity against human DND41 cells assessed as inhibition of cell growth incubated for 72 hrs by MTT assay; type: functional, cell-based; details: DND41, 72 h
[9] = tested on: Z-138; experiment: Antiproliferative activity against human Z138 cells assessed as inhibition of cell growth incubated for 72 hrs by MTT assay; type: functional, cell-based; details: Z-138, 72 h
[10] = Cytotoxicity against hFB-hTERT6 cells assessed as inhibition of cell growth incubated for 72 hrs by MTT assay; type: toxicity, cell-based; details: human
[11] = tested on: LN-229; experiment: Antiproliferative activity against human LN-229 cells assessed as inhibition of cell growth incubated for 72 hrs by MTT assay; type: functional, cell-based; details: LN-229, 72 h
[12] = tested on: Calf thymus DNA; experiment: Binding affinity to calf thymus DNA assessed as dissociation constant at 10 uM by fluorescence spectroscopy analysis; type: nucleic-acid assay, Bos taurus
[13] = tested on: Calf thymus DNA; experiment: Binding affinity to calf thymus DNA assessed as binding constant at 10 uM by fluorescence spectroscopy analysis; type: nucleic-acid assay; details: Bos taurus
[14] = Octanol/water partition coefficient, logP of compound at pH 7.4 by HPLC analysis; type: physicochemical
[15] = Drug uptake in hFB-hTERT6 cells; type: ADME, cell-based; details: human
[16] = Drug uptake in human HCT-116 cells assessed as increase in intracellular accumulation at 2 uM measured after 24 hrs by flow cytometry analysis; type: ADME, cell-based; details: hct-116, 24 h
[17] = tested on: DNA; experiment: Binding affinity to pBR322 plasmid DNA (unknown origin) assessed as DNA intercalation by measuring reduction in electrophoretic shift at 5 to 20 uM incubated for 30 mins by EtBr staining based agarose gel electrophoresis; type: nucleic-acid assay; details: dose 5-20 µM
[18] = Drug uptake in human HCT-116 cells assessed as increase in intracellular accumulation at 2 uM measured after 24 hrs by Hoechst 33342 staining based fluorescence confocal microscopic analysis; type: ADME, cell-based; details: hct-116, 24 h

| Structure (SMILES) | solubility [1] [mg/mL] | IC50 [2] [nM] | IC50 [3] [nM] | IC50 [4] [nM] | IC50 [5] [nM] | IC50 [6] [nM] | IC50 [7] [nM] | IC50 [8] [nM] | IC50 [9] [nM] | IC50 at 72 h [10] [nM] | IC50 [11] [nM] | Kd [12] [nM] | Kb [13] | logD [14] | Drug uptake [15] | Drug uptake [16] | Activity [17] | Drug uptake [18] |
| --- | --- | --- | --- | --- | --- | --- | --- | --- | --- | --- | --- | --- | --- | --- | --- | --- | --- | --- |
| CN1CCN(C(=O)C2Cc3c(O)c4c(c(O)c3C2)C(=O)c2ccccc2C4=O)CC1 | ~1.7 (≈ 4.18 mM) | > 50000 | > 50000 | > 50000 | 24300 | 35200 | 18100 | 10100 | 36200 | > 50000 | 35000 |  |  |  |  |  |  |  |
| NCCCNC(=O)C1Cc2c(O)c3c(c(O)c2C1)C(=O)c1ccccc1C3=O |  | 7800 | 45000 | 3700 | 2100 | 3600 | 3300 | 43000 | > 50000 | 6500 | 3900 |  |  |  |  |  |  |  |
| NC1CCCN(C(=O)C2Cc3c(O)c4c(c(O)c3C2)C(=O)c2ccccc2C4=O)C1 (stereo unspecified) |  | 1200 | 1900 | 1700 | 3200 | 1000 | 4600 | 1500 | 2200 | 4000 | 3500 |  |  |  |  |  |  |  |
| O=C1c2ccccc2C(=O)c2c(O)c3c(c(O)c21)CC(C(=O)N[C@@H]1CCNC1)C3 |  | 9200 | 2300 | 2100 | 1600 | 1600 | 10100 | 2200 | 2300 | 4200 | 5800 |  |  |  |  |  |  |  |
| NCCN(CCN)C(=O)C1Cc2c(O)c3c(c(O)c2C1)C(=O)c1ccccc1C3=O |  | 18000 | 2300 | 1900 | 1300 | 1600 | 1800 | 2400 | 2500 | 2300 | 1600 |  |  |  |  |  |  |  |
| N[C@H]1CC[C@H](NC(=O)C2Cc3c(O)c4c(c(O)c3C2)C(=O)c2ccccc2C4=O)CC1 |  | 8800 | 2700 | 2000 | 2100 | 1900 | 6500 | 2500 | 2600 | 4500 | 4500 |  |  |  |  |  |  |  |
| O=C1c2ccccc2C(=O)c2c(O)c3c(c(O)c21)CC(C(=O)NC1CCNCC1)C3 |  | 4500 | 1500 | 1600 | 1000 | 1700 | 1800 | 2000 | 3100 | 4500 | 1400 |  |  |  |  |  |  |  |
| N[C@@H]1CCN(C(=O)C2Cc3c(O)c4c(c(O)c3C2)C(=O)c2ccccc2C4=O)C1 |  | 2100 | 2000 | 2000 | 1100 | 1100 | 1200 | 2300 | 2500 | 4700 | 2000 |  |  |  |  |  |  |  |
| N[C@@H]1CN(C(=O)C2Cc3c(O)c4c(c(O)c3C2)C(=O)c2ccccc2C4=O)C[C@H]1N |  | 35000 | 2800 | 2800 | 2000 | 1700 | 3800 | 2300 | 2600 | 23000 | 3900 | 3200 | 0.31 10^6/M |  |  |  |  |  |
| O=C1c2ccccc2C(=O)c2c(O)c3c(c(O)c21)CC(C(=O)N1CCC(N2CCCCC2)CC1)C3 |  | 4600 | 2400 | 2000 | 3100 | 1500 | 3100 | 1700 | 2500 | 4500 | 2800 |  |  |  |  |  |  |  |
| CC(=O)[C@]1(O)Cc2c(O)c3c(c(O)c2[C@@H](O[C@H]2C[C@H](N)[C@H](O)[C@H](C)O2)C1)C(=O)c1c(O)cccc1C3=O [CARUBICIN] |  |  |  |  |  |  |  |  |  |  |  |  |  | 0.95 |  |  |  |  |
| O=C1c2ccccc2C(=O)c2c(O)c3c(c(O)c21)CC(C(=O)N1CCNCC1)C3 | 46 (≈ 117 mM) | 2200 | 1200 | 1300 | 1300 | 1400 | 8800 | 1700 | 2100 | 4000 | 5000 |  |  |  |  |  |  |  |
| O=C1c2ccccc2C(=O)c2c(O)c3c(c(O)c21)CC(C(=O)N[C@H]1CCNC1)C3 |  | 4800 | 2300 | 2400 | 1500 | 1500 | 2300 | 1900 | 1800 | 4200 | 5100 |  |  |  |  |  |  |  |
| NCCNC(=O)C1Cc2c(O)c3c(c(O)c2C1)C(=O)c1ccccc1C3=O |  | 6000 | 3700 | 2100 | 1400 | 1600 | 1800 | 3100 | 2100 | 4000 | 2600 |  |  |  |  |  |  |  |
| O=C1c2ccccc2C(=O)c2c(O)c3c(c(O)c21)CC(C(=O)NC1CNC1)C3 |  | 33000 | 2700 | 2700 | 1400 | 1500 | 2700 | 3100 | 2800 | 4300 | 2900 |  |  |  |  |  |  |  |
| O=C1c2ccccc2C(=O)c2c(O)c3c(c(O)c21)CC(C(=O)NC1CCCNC1)C3 (stereo unspecified) |  | 3200 | 1900 | 1700 | 3200 | 1000 | 4600 | 1500 | 2200 | 4200 | 3500 |  |  |  |  |  |  |  |
| O=C1c2ccccc2C(=O)c2c(O)c3c(c(O)c21)CC(C(=O)NCCOCCO)C3 |  | > 50000 | > 50000 | > 50000 | > 50000 | > 50000 | > 50000 | > 50000 | > 50000 | > 50000 | > 50000 | 90000 | 0.011 10^6/M |  | Not Active | Not Active | inactive | Not Active |
| O=C1c2ccccc2C(=O)c2c(O)c3c(c(O)c21)CC(C(=O)NC1CN2CCC1CC2)C3 (stereo unspecified) |  | 4100 | 2100 | 1600 | 1500 | 1800 | 6200 | 2200 | 2700 | 2400 | 1900 |  |  |  |  |  |  |  |
